Assay results: PubChem BioAssay (NCI)
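Assay format: 96-well plates, 48-hour exposure. TGI denotes the concentration required for complete inhibition of growth.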

What was measured:
Assay in all cases: DTP human tumour cell line panel, 48 h
A498 renal = test system: A498 renal
A549 NSCLC = test system: A549 NSCLC
ACHN renal = test system: ACHN renal
CCRF-CEM leukemia = test system: CCRF-CEM leukemia
COLO 205 colon = test system: COLO 205 colon
DU-145 prostate = test system: DU-145 prostate
HCC-2998 colon = test system: HCC-2998 colon
HCT-116 colon = test system: HCT-116 colon
HCT-15 colon = test system: HCT-15 colon
HOP-92 NSCLC = test system: HOP-92 NSCLC
HS 578T breast = test system: HS 578T breast
HT29 colon = test system: HT29 colon
KM12 colon = test system: KM12 colon
LOX IMVI melanoma = test system: LOX IMVI melanoma
MCF7 breast = test system: MCF7 breast
MDA-MB-231 breast = test system: MDA-MB-231 breast
MDA-MB-435 = test system: MDA-MB-435
MDA-N = test system: MDA-N
MOLT-4 leukemia = test system: MOLT-4 leukemia
NCI-H226 lung = test system: NCI-H226 lung
NCI-H23 lung = test system: NCI-H23 lung
NCI-H460 lung = test system: NCI-H460 lung
NCI-H522 lung = test system: NCI-H522 lung
NCI/ADR-RES ovarian = test system: NCI/ADR-RES ovarian
OVCAR-3 ovarian = test system: OVCAR-3 ovarian
OVCAR-4 ovarian = test system: OVCAR-4 ovarian
OVCAR-8 ovarian = test system: OVCAR-8 ovarian
PC-3 prostate = test system: PC-3 prostate
RXF 393 renal = test system: RXF 393 renal
SF-268 CNS = test system: SF-268 CNS
SF-295 CNS = test system: SF-295 CNS
SK-MEL-28 melanoma = test system: SK-MEL-28 melanoma
SK-MEL-5 melanoma = test system: SK-MEL-5 melanoma
SK-OV-3 ovarian = test system: SK-OV-3 ovarian
SN12C renal = test system: SN12C renal
SNB-19 CNS = test system: SNB-19 CNS
SNB-75 CNS = test system: SNB-75 CNS
SR leukemia = test system: SR leukemia
SW-620 colon = test system: SW-620 colon
T-47D breast = test system: T-47D breast
TK-10 renal = test system: TK-10 renal
U251 CNS = test system: U251 CNS
UACC-257 melanoma = test system: UACC-257 melanoma
UO-31 renal = test system: UO-31 renal
786-0 renal = test system: 786-0 renal
CAKI-1 renal = test system: CAKI-1 renal
EKVX NSCLC = test system: EKVX NSCLC
HL-60(TB) leukemia = test system: HL-60(TB) leukemia
HOP-62 NSCLC = test system: HOP-62 NSCLC
IGROV1 ovarian = test system: IGROV1 ovarian
K-562 leukemia = test system: K-562 leukemia
M14 melanoma = test system: M14 melanoma
MALME-3M melanoma = test system: MALME-3M melanoma
RPMI-8226 leukemia = test system: RPMI-8226 leukemia
SF-539 CNS = test system: SF-539 CNS
SK-MEL-2 melanoma = test system: SK-MEL-2 melanoma
UACC-62 melanoma = test system: UACC-62 melanoma

CC1(CO)COS(=O)OC1 (configuration not stated)
TGI (A498 renal): > 100 µM | TGI (A549 NSCLC): > 100 µM | TGI (ACHN renal): > 100 µM | TGI (CCRF-CEM leukemia): > 100 µM | TGI (COLO 205 colon): > 100 µM | TGI (DU-145 prostate): > 100 µM | TGI (HCC-2998 colon): > 100 µM | TGI (HCT-116 colon): > 100 µM | TGI (HCT-15 colon): > 100 µM | TGI (HOP-92 NSCLC): > 100 µM | TGI (HS 578T breast): > 100 µM | TGI (HT29 colon): > 100 µM | TGI (KM12 colon): > 100 µM | TGI (LOX IMVI melanoma): > 100 µM | TGI (MCF7 breast): > 100 µM | TGI (MDA-MB-231 breast): > 100 µM | TGI (MDA-MB-435): > 100 µM | TGI (MDA-N): > 100 µM | TGI (MOLT-4 leukemia): > 100 µM | TGI (NCI-H226 lung): > 100 µM | TGI (NCI-H23 lung): > 100 µM | TGI (NCI-H460 lung): > 100 µM | TGI (NCI-H522 lung): > 100 µM | TGI (NCI/ADR-RES ovarian): > 100 µM | TGI (OVCAR-3 ovarian): > 100 µM | TGI (OVCAR-4 ovarian): > 100 µM | TGI (OVCAR-8 ovarian): > 100 µM | TGI (PC-3 prostate): > 100 µM | TGI (RXF 393 renal): > 100 µM | TGI (SF-268 CNS): > 100 µM | TGI (SF-295 CNS): > 100 µM | TGI (SK-MEL-28 melanoma): > 100 µM | TGI (SK-MEL-5 melanoma): > 100 µM | TGI (SK-OV-3 ovarian): > 100 µM | TGI (SN12C renal): > 100 µM | TGI (SNB-19 CNS): > 100 µM | TGI (SNB-75 CNS): > 100 µM | TGI (SR leukemia): > 100 µM | TGI (SW-620 colon): > 100 µM | TGI (T-47D breast): > 100 µM | TGI (TK-10 renal): > 100 µM | TGI (U251 CNS): > 100 µM | TGI (UACC-257 melanoma): > 100 µM | TGI (UO-31 renal): > 100 µM

O=C(NCCCl)Nc1cccnc1
TGI (786-0 renal): 39.9 µM | TGI (A498 renal): 40.5 µM | TGI (A549 NSCLC): 99.5 µM | TGI (ACHN renal): 27.4 µM | TGI (CAKI-1 renal): 36.1 µM | TGI (CCRF-CEM leukemia): > 100 µM | TGI (COLO 205 colon): 51.3 µM | TGI (DU-145 prostate): 29.4 µM | TGI (EKVX NSCLC): 38.3 µM | TGI (HCC-2998 colon): 37.5 µM | TGI (HCT-116 colon): 32 µM | TGI (HCT-15 colon): 66.7 µM | TGI (HL-60(TB) leukemia): > 100 µM | TGI (HOP-62 NSCLC): > 100 µM | TGI (HOP-92 NSCLC): 53.3 µM | TGI (HT29 colon): 34.9 µM | TGI (IGROV1 ovarian): 35.6 µM | TGI (K-562 leukemia): > 100 µM | TGI (KM12 colon): 41.5 µM | TGI (LOX IMVI melanoma): 55.3 µM | TGI (M14 melanoma): > 100 µM | TGI (MALME-3M melanoma): 7.4 µM | TGI (MCF7 breast): > 100 µM | TGI (MDA-MB-231 breast): 33.3 µM | TGI (MDA-MB-435): > 100 µM | TGI (MDA-N): 67.9 µM | TGI (MOLT-4 leukemia): 81.8 µM | TGI (NCI-H226 lung): 30.5 µM | TGI (NCI-H23 lung): 46.2 µM | TGI (NCI-H522 lung): 62.1 µM | TGI (NCI/ADR-RES ovarian): 47.7 µM | TGI (OVCAR-3 ovarian): 83.2 µM | TGI (OVCAR-4 ovarian): 90.7 µM | TGI (OVCAR-8 ovarian): 27.9 µM | TGI (PC-3 prostate): > 100 µM | TGI (RPMI-8226 leukemia): 86.6 µM | TGI (RXF 393 renal): > 100 µM | TGI (SF-295 CNS): 94.5 µM | TGI (SF-539 CNS): > 100 µM | TGI (SK-MEL-2 melanoma): > 100 µM | TGI (SK-MEL-28 melanoma): > 100 µM | TGI (SK-MEL-5 melanoma): > 100 µM | TGI (SK-OV-3 ovarian): 43.5 µM | TGI (SN12C renal): 64.7 µM | TGI (SNB-19 CNS): 80.4 µM | TGI (SNB-75 CNS): 63.1 µM | TGI (SW-620 colon): > 100 µM | TGI (T-47D breast): 59.5 µM | TGI (TK-10 renal): 27.7 µM | TGI (U251 CNS): > 100 µM | TGI (UACC-257 melanoma): 72.2 µM | TGI (UACC-62 melanoma): > 100 µM | TGI (UO-31 renal): 50.3 µM
